Data on 18 compounds can be found in patent US10112926B2 (priority 2014, dated 2018).

Molecules are shown by their SMILES. Where a name gives a salt, the structure may show the parent alone.

One assay concerns the target PI 4-kinase beta (Homo sapiens (Human), UniProt Q9UBF8). The following applies: read-out: Assay D PI4Kβ IC50.
For a further assay, the target named is mTOR (Homo sapiens (Human), UniProt P42345). The conditions noted are these: read-out: Assay G mTOR IC50.
Another assay deals with Vps34 (Homo sapiens (Human), UniProt Q8NEB9). The conditions noted are these: read-out: Assay C VPS34 IC50.
Chain of Vps34 (Q8NEB9 whole entry): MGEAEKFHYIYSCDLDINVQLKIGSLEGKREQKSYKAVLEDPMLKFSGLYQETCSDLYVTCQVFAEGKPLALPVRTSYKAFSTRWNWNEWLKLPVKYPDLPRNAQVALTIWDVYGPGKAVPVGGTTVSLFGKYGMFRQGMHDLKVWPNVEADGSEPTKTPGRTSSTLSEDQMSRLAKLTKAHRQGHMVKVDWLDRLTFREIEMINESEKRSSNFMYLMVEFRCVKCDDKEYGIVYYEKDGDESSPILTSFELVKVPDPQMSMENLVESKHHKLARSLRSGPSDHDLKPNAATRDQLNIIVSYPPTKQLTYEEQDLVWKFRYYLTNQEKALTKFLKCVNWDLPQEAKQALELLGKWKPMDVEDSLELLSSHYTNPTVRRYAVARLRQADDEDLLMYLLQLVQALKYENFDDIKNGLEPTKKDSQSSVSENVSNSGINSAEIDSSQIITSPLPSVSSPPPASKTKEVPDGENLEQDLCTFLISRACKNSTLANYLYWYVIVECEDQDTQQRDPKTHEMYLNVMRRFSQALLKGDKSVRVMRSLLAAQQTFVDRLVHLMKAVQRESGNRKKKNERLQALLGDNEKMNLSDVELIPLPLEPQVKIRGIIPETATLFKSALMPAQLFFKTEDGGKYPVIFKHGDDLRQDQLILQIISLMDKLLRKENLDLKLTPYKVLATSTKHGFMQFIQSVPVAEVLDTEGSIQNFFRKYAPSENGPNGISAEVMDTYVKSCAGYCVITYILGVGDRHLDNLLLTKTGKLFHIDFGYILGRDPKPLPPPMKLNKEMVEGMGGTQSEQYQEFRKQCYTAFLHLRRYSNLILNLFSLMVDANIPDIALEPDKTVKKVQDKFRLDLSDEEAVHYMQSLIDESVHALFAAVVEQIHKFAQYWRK

Chain of PI 4-kinase beta (Q9UBF8 whole entry): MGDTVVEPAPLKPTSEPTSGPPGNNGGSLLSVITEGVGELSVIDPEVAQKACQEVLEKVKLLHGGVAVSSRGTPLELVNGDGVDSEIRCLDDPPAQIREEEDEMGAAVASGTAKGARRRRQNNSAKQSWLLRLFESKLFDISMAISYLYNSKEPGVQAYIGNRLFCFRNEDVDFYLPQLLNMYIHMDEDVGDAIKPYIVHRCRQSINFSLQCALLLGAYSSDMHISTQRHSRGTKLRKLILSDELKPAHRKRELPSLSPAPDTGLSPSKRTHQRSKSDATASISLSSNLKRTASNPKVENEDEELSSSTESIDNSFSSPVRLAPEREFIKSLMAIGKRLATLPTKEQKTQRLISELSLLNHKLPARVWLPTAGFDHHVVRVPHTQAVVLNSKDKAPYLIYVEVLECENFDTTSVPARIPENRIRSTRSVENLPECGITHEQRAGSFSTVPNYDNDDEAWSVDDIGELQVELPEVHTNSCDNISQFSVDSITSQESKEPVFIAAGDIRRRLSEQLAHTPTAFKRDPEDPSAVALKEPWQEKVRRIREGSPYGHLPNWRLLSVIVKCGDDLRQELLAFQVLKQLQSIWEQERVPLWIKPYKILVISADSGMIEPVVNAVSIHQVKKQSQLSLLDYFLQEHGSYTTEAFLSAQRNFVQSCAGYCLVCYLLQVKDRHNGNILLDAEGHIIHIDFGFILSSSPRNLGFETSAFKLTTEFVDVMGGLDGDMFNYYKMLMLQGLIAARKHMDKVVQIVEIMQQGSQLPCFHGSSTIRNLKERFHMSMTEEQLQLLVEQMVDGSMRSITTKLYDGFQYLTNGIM

Regarding `Cc1noc(-c2cc(-c3cc(S(=O)(=O)NOCC(C)(C)O)ccc3C)cnc2N)n1` [Example 11, 3-[6-Amino-5-(3-methyl-[1,2,4]oxadiazol-5-yl)-pyridin-3-yl]-N-(2-hydroxy-2-methyl-propoxy)-4-methyl-benzenesulfonamide, hydrochloride salt], the half-maximal inhibitory concentration (IC50) (as a rule, the point on the concentration scale where inhibition reaches its midpoint) at PI 4-kinase beta is 5.1 µM; at mTOR it was over 10 µM; at Vps34, over 10 µM.

In the case of `Cc1ncc(-c2cc(-c3cc(S(=O)(=O)NCCC(C)(C)O)ccc3C)cnc2N)o1` [Example 13, 3-[6-Amino-5-(2-methyl-oxazol-5-yl)-pyridin-3-yl]-N-(3-hydroxy-3-methyl-butyl)-4-methyl-benzenesulfonamide, hydrochloride salt], the results for the IC50 at PI 4-kinase beta, at mTOR and at Vps34 were 4.4 µM, 1.6 µM and over 10 µM, respectively.

Take `Cc1noc(-c2cc(-c3cc(S(=O)(=O)N4CC(CO)C4)ccc3C)cnc2N)n1` [Example 37.39, (S)-((3-(6-Amino-5-(3-methyl-1,2,4-oxadiazol-5-yl)pyridin-3-yl)-4-methylphenyl)sulfonyl)azetidin-3-yl)methanol]: the IC50 was 4.8 µM on PI 4-kinase beta, over 10 µM at mTOR and over 10 µM on Vps34.

On to `Cc1noc(-c2cc(-c3cc(S(=O)(=O)N[C@H]4CC[C@H](O)CC4)ccc3C)cnc2N)n1` [Example 12, trans 3-[6-Amino-5-(3-methyl-[1,2,4]oxadiazol-5-yl)-pyridin-3-yl]-N-(4-hydroxy-cyclohexyl)-4-methyl-benzenesulfonamide, hydrochloride salt], for which the IC50 is 5.3 µM at PI 4-kinase beta, over 10 µM on mTOR and over 10 µM at Vps34.

Consider `Cc1ccc(S(=O)(=O)NCC(C)(C)O)cc1-c1cnc(N)c(-c2nc(C(C)C)no2)c1` [Example 5.1, 3-(6-Amino-5-(3-isopropyl-1,2,4-oxadiazol-5-yl)pyridin-3-yl)-N-(2-hydroxy-2-methylpropyl)-4-methylbenzenesulfonamide hydrochloride], for which the 50% inhibitory concentration (IC50) at PI 4-kinase beta is 4.4 µM; at mTOR, 8.2 µM; at Vps34 it was over 10 µM.

Consider `Cc1ccc(S(=O)(=O)NCCC(C)(C)O)cc1-c1cnc(N)c(-c2ccncc2)c1` [Example 18, 3-(2-Amino-[3,4′]bipyridinyl-5-yl)-N-(3-hydroxy-3-methyl-butyl)-4-methyl-benzenesulfonamide], for which the IC50 at PI 4-kinase beta, at mTOR and on Vps34 was over 9.1 µM throughout.

Consider `Cc1noc(-c2cc(-c3cc(S(=O)(=O)NCC4CCOC4)ccc3C)cnc2N)n1` (stereo not drawn) [Example 29, 3-(6-Amino-5-(3-methyl-1,2,4-oxadiazol-5-yl)pyridin-3-yl)-4-methyl-N-((tetrahydrofuran-3-yl)methyl)benzenesulfonamide], for which the IC50 on PI 4-kinase beta was 9.9 µM; on mTOR, over 10 µM; at Vps34, over 10 µM.

Take `Cc1noc(-c2cc(-c3cc(S(=O)(=O)NCCC(C)(C)O)ccc3C)cnc2N)n1` [Example 5, 3-[6-Amino-5-(3-methyl-[1,2,4]oxadiazol-5-yl)-pyridin-3-yl]-N-(3-hydroxy-3-methyl-butyl)-4-methyl-benzenesulfonamide hydrochloride]: the values for the IC50 on PI 4-kinase beta, on mTOR and on Vps34 were 4.9 µM, 6.5 µM and over 9.55 µM, respectively.

For `Cc1cccc(NS(=O)(=O)c2ccc(C)c(-c3cnc(N)c(-c4cnn(CC(F)(F)F)c4)c3)c2)n1` [Example 1, 3-{6-Amino-5-[1-(2,2,2-trifluoro-ethyl)-1H-pyrazol-4-yl]-pyridin-3-yl}-4-methyl-N-(6-methyl-pyridin-2-yl)-benzenesulfonamide], the IC50 on PI 4-kinase beta is 1.95 µM; at mTOR, 2.37 µM; at Vps34, over 9.1 µM.

In the case of `Cc1cnc(-c2cc(-c3cc(S(=O)(=O)N[C@H]4CC[C@H](O)CC4)ccc3C)cnc2N)o1` [Example 5.2, trans 3-(6-Amino-5-(5-methyloxazol-2-yl)pyridin-3-yl)-N-(4-hydroxycyclohexyl)-4-methylbenzene sulfonamide hydrochloride], the IC50 at PI 4-kinase beta is 0.9 µM; at mTOR, over 10 µM; at Vps34, over 10 µM.

As to `Cc1ccc(S(=O)(=O)NCCC(C)(C)O)cc1-c1cnc(N)c(-c2cnn(C)n2)c1` [Example 106, 3-(6-amino-5-(2-methyl-2H-1,2,3-triazol-4-yl)pyridin-3-yl)-N-(3-hydroxy-3-methylbutyl)-4-methylbenzenesulfonamide], the half-maximal inhibitory concentration (IC50) was 6.4 µM at PI 4-kinase beta, 7.6 µM at mTOR and over 10 µM on Vps34.

Take `Cc1noc(-c2cc(-c3cc(S(=O)(=O)NCC4(O)CCC4)ccc3C)cnc2N)n1` [Example 37.15, 3-(6-Amino-5-(3-methyl-1,2,4-oxadiazol-5-yl)pyridin-3-yl)-N-((1-hydroxycyclobutyl)methyl)-4-methylbenzenesulfonamide]: the values for the half-maximal inhibitory concentration (IC50) on PI 4-kinase beta, at mTOR and on Vps34 were 5.4 µM, over 10 µM and over 10 µM, respectively.

For the compound `CCCONS(=O)(=O)c1ccc(C)c(-c2cnc(N)c(-c3nc(C)no3)c2)c1` [Example 44, 3-(6-Amino-5-(3-methyl-1,2,4-oxadiazol-5-yl)pyridin-3-yl)-4-methyl-N-propoxybenzenesulfonamide], the concentration for half-maximal inhibition (IC50) at PI 4-kinase beta was 3.55 µM; at mTOR, over 10 µM; at Vps34, over 10 µM.

On to `Cc1noc(-c2cc(-c3cc(S(=O)(=O)NCC(C)(C)CO)ccc3C)cnc2N)n1` [Example 37.18, 3-(6-Amino-5-(3-methyl-1,2,4-oxadiazol-5-yl)pyridin-3-yl)-N-(3-hydroxy-2,2-dimethylpropyl)-4-methylbenzenesulfonamide hydrochloride], for which the half-maximal inhibitory concentration (IC50) on PI 4-kinase beta, at mTOR and at Vps34 was over 10 µM each time.

In the case of `Cc1noc(-c2cc(-c3cc(S(=O)(=O)NCC4(C)COC4)ccc3C)cnc2N)n1` [Example 4.9, 3-(6-Amino-5-(3-methyl-1,2,4-oxadiazol-5-yl)pyridin-3-yl)-4-methyl-N-((3-methyloxetan-3-yl)methyl)benzene-sulfonamide], the IC50 on PI 4-kinase beta, on mTOR and at Vps34 was over 10 µM in each case.

`Cc1noc(-c2cc(-c3cc(S(=O)(=O)NCCC(F)(F)F)ccc3C)cnc2N)n1` [Example 48, 3-(6-Amino-5-(3-methyl-1,2,4-oxadiazol-5-yl)pyridin-3-yl)-4-methyl-N-(3,3,3-trifluoropropyl)benzenesulfonamide]: the values for the concentration for half-maximal inhibition (IC50) at PI 4-kinase beta, at mTOR and at Vps34 were 6 µM, over 10 µM and over 10 µM, respectively.

For `Cc1ncc(-c2cc(-c3cc(S(=O)(=O)N[C@H]4CC[C@H](O)CC4)ccc3C)cnc2N)s1` [Example 97, 3-(6-amino-5-(2-methylthiazol-5-yl)pyridin-3-yl)-N-((1r,4r)-4-hydroxycyclohexyl)-4-methylbenzenesulfonamide], the half-inhibitory concentration (IC50) amounted to 1.34 µM at PI 4-kinase beta, 6.5 µM at mTOR and 3.8 µM at Vps34.

For `Cc1noc(-c2cc(-c3cc(S(=O)(=O)NOC(C)C)ccc3C)cnc2N)n1` [Example 45, 3-(6-Amino-5-(3-methyl-1,2,4-oxadiazol-5-yl)pyridin-3-yl)-N-isopropoxy-4-methylbenzenesulfonamide], the IC50 was 7.4 µM on PI 4-kinase beta, 9.1 µM at mTOR and over 10 µM on Vps34.
